# Assay results taken from patent US20260374751A1, “AMIDE PRODRUGS AND USES THEREOF” (Autobahn Therapeutics, Inc., priority 2022, published 2026).
# Molecular target: S1P1 (Homo sapiens, UniProt P21453)
# Assay: S1P1 receptor agonism (EC50 statement)
# Format: biochemical
# Conditions: not given
# Chain of S1P1 (P21453 whole entry, species assumed): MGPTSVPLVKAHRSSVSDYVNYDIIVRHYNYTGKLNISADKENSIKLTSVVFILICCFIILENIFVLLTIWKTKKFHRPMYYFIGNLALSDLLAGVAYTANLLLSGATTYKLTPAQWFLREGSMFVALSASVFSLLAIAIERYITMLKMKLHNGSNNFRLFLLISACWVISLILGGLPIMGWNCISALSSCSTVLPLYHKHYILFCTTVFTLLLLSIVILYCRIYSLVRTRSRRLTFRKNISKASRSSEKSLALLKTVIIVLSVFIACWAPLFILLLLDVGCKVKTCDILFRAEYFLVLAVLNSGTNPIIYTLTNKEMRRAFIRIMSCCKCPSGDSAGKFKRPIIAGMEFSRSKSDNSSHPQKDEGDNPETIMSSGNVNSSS
row,Structure (SMILES),EC50 [nM]
1,"CCCc1ccc(COc2ccc3c(c2)CCC(CN2CC(C(=O)O)C2)=C3C)c(OC)c1 [Compound 1, ceralifimod]",11.8

# Molecular target: T1, recombinant human FAAH (rhFAAH) (Homo sapiens, UniProt O00519)
# T1 sequence (O00519 1-579): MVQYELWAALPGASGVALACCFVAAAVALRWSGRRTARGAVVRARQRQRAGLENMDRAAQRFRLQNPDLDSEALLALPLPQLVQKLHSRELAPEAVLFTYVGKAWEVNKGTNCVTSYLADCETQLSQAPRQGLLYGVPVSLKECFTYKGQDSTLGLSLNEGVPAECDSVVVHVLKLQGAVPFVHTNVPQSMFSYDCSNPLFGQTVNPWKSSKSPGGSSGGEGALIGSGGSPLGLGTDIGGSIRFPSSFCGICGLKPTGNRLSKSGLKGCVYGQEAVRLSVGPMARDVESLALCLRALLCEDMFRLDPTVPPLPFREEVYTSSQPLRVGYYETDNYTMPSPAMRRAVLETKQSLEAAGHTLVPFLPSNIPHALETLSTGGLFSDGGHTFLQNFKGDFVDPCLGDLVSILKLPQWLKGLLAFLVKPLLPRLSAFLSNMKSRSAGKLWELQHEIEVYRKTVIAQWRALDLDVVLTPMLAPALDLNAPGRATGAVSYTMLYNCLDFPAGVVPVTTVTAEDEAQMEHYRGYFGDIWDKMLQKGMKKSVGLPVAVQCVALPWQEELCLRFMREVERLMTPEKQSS
# Assay: FAAH substrate evaluation: formation of acid metabolite by purified recombinant human FAAH (rhFAAH)
# Format: biochemical
# Conditions: role: substrate; 1 μM test compound, 0.5 ng/μL rhFAAH, 1.25% ethanol or 1 μM PF-3845 (FAAH inhibitor), 0.1% BSA, Tris-EDTA pH 8.0, room temperature, 0-60 minutes
# Description: Purified recombinant human FAAH (rhFAAH) was purchased from Cayman Chemical (Ann Arbor, MI, USA). The total volume for each incubation was 400 μL containing a final 0.5 ng/μL rhFAAH, 1 μM test compound, 1.25% ethanol or 1 μM PF-3845 (FAAH inhibitor), and 0.1% bovine serum albumin in Tris-EDTA buffer at pH 8.0). The incubation was conducted at room temperature. At 0, 5, 15, 30 and 60 minutes, an aliquot of 30 μL reaction mixtures was removed and mixed with 300 μL acetonitrile containing 5 ng/mL terfenadine and 10 ng/mL tolbutamide as internal standards to quench the reaction. The resulting mixture was centrifuged at 4000 rpm, 4 °C for 15 minutes, and 100 μL supernatant was ready for LC-MS/MS analysis to measure the formation of acid metabolite.
# Acquity Ultra Performance LC system from Waters was used for sample analysis. The chromatography was performed on a reverse phase Kinetex 2.6 μm C18 column, 2.1×30 mm, 100 Å. The mobile phase A comprised of 0.1% formic acid in water and mobile phase B comprised of 0.1% formic acid in acetonitrile with a 1.5 min run time at the flow rate of 0.9 mL/min for the acid metabolite of test compounds. The mass spectrometer (API-5500 and API Q Trap 4000 Applied Biosystems/MDS SCIEX Instruments, Framingham, MA, USA) was operated under ESI positive or negative ion MRM mode.
# The formation of acid metabolite was monitored and quantified using one calibration point of 1 μM. The observed rate constant (ke) for the acid metabolite formation was calculated by plotting the metabolite concentration versus time of incubation with the slope being ke and is shown in Table 1.
row,Structure (SMILES),ke (observed rate constant for the acid metabolite formation)
1,"CCCc1ccc(COc2ccc3c(c2)CCC(CN2CC(C(=O)Nc4cccnn4)C2)=C3C)c(OC)c1 [Compound 4, 1-((6-((2-methoxy-4-propylbenzyl)oxy)-1-methyl-3,4-dihydronaphthalen-2-yl)methyl)-N-(pyridazin-3-yl)azetidine-3-carboxamide]",A (ke is more than or equal to 1.0)
2,"CCCc1ccc(COc2ccc3c(c2)CCC(CN2CC(C(=O)Nc4cccnc4)C2)=C3C)c(OC)c1 [Compound 3, 1-((6-((2-methoxy-4-propylbenzyl)oxy)-1-methyl-3,4-dihydronaphthalen-2-yl)methyl)-N-(pyridin-3-yl)azetidine-3-carboxamide]",B (ke is less than 1.0 and more than 0)
3,"CCCc1ccc(COc2ccc3c(c2)CCC(CN2CC(C(=O)N[C@H](C)CC)C2)=C3C)c(OC)c1 [Compound 9, (R)—N-(sec-butyl)-1-((6-((2-methoxy-4-propylbenzyl)oxy)-1-methyl-3,4-dihydronaphthalen-2-yl)methyl)azetidine-3-carboxamide]",A (ke is more than or equal to 1.0)
4,"CCCc1ccc(COc2ccc3c(c2)CCC(CN2CC(C(=O)N[C@@H](C)CC)C2)=C3C)c(OC)c1 [Compound 10, (S)—N-(sec-butyl)-1-((6-((2-methoxy-4-propylbenzyl)oxy)-1-methyl-3,4-dihydronaphthalen-2-yl)methyl)azetidine-3-carboxamide]",B (ke is less than 1.0 and more than 0)
5,"CCCc1ccc(COc2ccc3c(c2)CCC(CN2CC(C(=O)NCC(F)(F)F)C2)=C3C)c(OC)c1 [Compound 6, 1-((6-((2-methoxy-4-propylbenzyl)oxy)-1-methyl-3,4-dihydronaphthalen-2-yl)methyl)-N-(2,2,2-trifluoroethyl)azetidine-3-carboxamide]",A (ke is more than or equal to 1.0)
6,"CCCCN(C)C(=O)C1CN(CC2=C(C)c3ccc(OCc4ccc(CCC)cc4OC)cc3CC2)C1 [Compound 14, N-butyl-1-((6-((2-methoxy-4-propylbenzyl)oxy)-1-methyl-3,4-dihydronaphthalen-2-yl)methyl)-N-methylazetidine-3-carboxamide]",C (ke is 0)
7,"CCCc1ccc(COc2ccc3c(c2)CCC(CN2CC(C(=O)NCCCF)C2)=C3C)c(OC)c1 [Compound 5, N-(3-fluoropropyl)-1-((6-((2-methoxy-4-propylbenzyl)oxy)-1-methyl-3,4-dihydronaphthalen-2-yl)methyl)azetidine-3-carboxamide]",A (ke is more than or equal to 1.0)
8,"CCCc1ccc(COc2ccc3c(c2)CCC(CN2CC(C(=O)NCC)C2)=C3C)c(OC)c1 [Compound 19, N-ethyl-1-((6-((2-methoxy-4-propylbenzyl)oxy)-1-methyl-3,4-dihydronaphthalen-2-yl)methyl)azetidine-3-carboxamide]",A (ke is more than or equal to 1.0)
9,"CCCc1ccc(COc2ccc3c(c2)CCC(CN2CC(C(=O)Nc4ccncc4)C2)=C3C)c(OC)c1 [Compound 13, 1-((6-((2-methoxy-4-propylbenzyl)oxy)-1-methyl-3,4-dihydronaphthalen-2-yl)methyl)-N-(pyridin-4-yl)azetidine-3-carboxamide]",A (ke is more than or equal to 1.0)
10,"CCCc1ccc(COc2ccc3c(c2)CCC(CN2CC(C(=O)NC4CC4)C2)=C3C)c(OC)c1 [Compound 8, N-cyclopropyl-1-((6-((2-methoxy-4-propylbenzyl)oxy)-1-methyl-3,4-dihydronaphthalen-2-yl)methyl)azetidine-3-carboxamide]",A (ke is more than or equal to 1.0)
11,"CCCc1ccc(COc2ccc3c(c2)CCC(CN2CC(C(=O)N(C)OC)C2)=C3C)c(OC)c1 [Compound 21, N-methoxy-1-((6-((2-methoxy-4-propylbenzyl)oxy)-1-methyl-3,4-dihydronaphthalen-2-yl)methyl)-N-methylazetidine-3-carboxamide]",A (ke is more than or equal to 1.0)

# Molecular target: S1P5 (Homo sapiens, UniProt Q9H228)
# Sequence (Q9H228 whole entry, species assumed): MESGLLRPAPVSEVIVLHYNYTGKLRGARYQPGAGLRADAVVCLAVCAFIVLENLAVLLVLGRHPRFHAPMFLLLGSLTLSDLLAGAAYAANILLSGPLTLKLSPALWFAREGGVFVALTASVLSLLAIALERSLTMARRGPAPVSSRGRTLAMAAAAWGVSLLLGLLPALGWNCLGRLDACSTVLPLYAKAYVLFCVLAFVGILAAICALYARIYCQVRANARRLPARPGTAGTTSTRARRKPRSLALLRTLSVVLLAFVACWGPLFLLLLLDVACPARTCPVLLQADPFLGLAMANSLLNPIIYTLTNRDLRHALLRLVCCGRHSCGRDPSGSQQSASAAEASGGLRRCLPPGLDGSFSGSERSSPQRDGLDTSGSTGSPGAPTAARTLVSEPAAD
# Assay: S1P5 receptor agonism (EC50 statement)
# Format: biochemical
# Conditions: not given
row,Structure (SMILES),EC50 [nM]
1,"CCCc1ccc(COc2ccc3c(c2)CCC(CN2CC(C(=O)O)C2)=C3C)c(OC)c1 [Compound 1, ceralifimod]",1
